# Read-outs that look alike come from different tables or passages of the source. Starred links: 1 amine or outer side, 2 acyl side, 3 side chain; linkers in the order of their positions; H or OH if unused. Positions of bridges follow the written chain, without caps; N, C: chain ends. Non-standard residues stand in square brackets, D forms with d. Residues, ends and D or L forms follow the SMILES beside them. Phe(3R-OH) = O=C([C@@H](N[*:1])[C@H](O[*:3])c1ccccc1)[*:2]; Phe(βR-NH) = O=C([C@@H](N[*:1])[C@H](N[*:3])c1ccccc1)[*:2]; X2 = O=C([C@H](Cc1ccc(C(F)(F)F)nc1)N[*:1])[*:2]; Asn(3S-OH) = NC(=O)[C@@H](O)[C@H](N)C(=O)O; Leu(3R-OH) = CC(C)[C@@H](O)[C@H](N)C(=O)O; X1 = Cc1cccc(C[C@H](N[*:1])C(=O)[*:2])n1; dAla(TMS) = C[Si](C)(C)C[C@@H](N)C(=O)O; d(tBuAla) = CC(C)(C)C[C@@H](N)C(=O)O; tBuAla = CC(C)(C)C[C@H](N)C(=O)O; 3Pal = N[C@@H](Cc1cccnc1)C(=O)O; aThr = C[C@H](O)[C@H](N)C(=O)O
# How the values were obtained:
# E. faecalis ICB 27159 = format: cell-based, Entercococcus faecalis
# Description: (§1) Determination of the Minimum Inhibitory Concentration (MIC):
# (§2) The MIC is determined in the liquid dilution test in accordance with the NCCLS guidelines. Overnight cultures of Staphylococcus aureus 133, Entercococcus faecalis 27159, E. faecium and Streptococcus pneumoniae G9a are incubated with the described test substances in a 1:2 dilution series. The MIC determination is carried out with a cell count of 10^5 microorganisms per ml in Isosensitest medium (Difco, Irvine/USA), with the exception of S. pneumoniae which is tested in BHI broth (Difco, Irvine/USA) with 10% bovine serum at a cell count of 10^6 microorganisms per ml. The cultures are incubated at 37° C. for 18-24 hours, S. pneumoniae in the presence of 10% CO2.
# (§3) The lowest substance concentration in each case at which visible bacterial growth […] is defined as the MIC. The MIC values are reported in μg/ml.
# [1] = system: Streptococcus pneumoniae G9a; format: cell-based
# Description: as §1, §2, §3
# [2] = system: Staphylococcus aureus 133; format: cell-based
# Description: as §1, §2, §3
# E. faecium L4001 = format: cell-based
# Description: as §1, §2, §3
# [3] = Isosensitest medium, 10^5 microorganisms per ml, 37° C., 18-24 hours
# [4] = BHI broth with 10% bovine serum, 10^6 microorganisms per ml, 37° C., 18-24 hours, 10% CO2
MIC E. faecium L4001 (E. faecium L4001; L4001),Structure (SMILES),MIC E. faecalis ICB 27159 (E. faecalis ICB 27159; [3]),"MIC S. pneumoniae G9a [1, 4]","MIC S. aureus 133 [2, 3]",MIC E. faecium L4001 (E. faecium L4001; [3]),MIC E. faecalis ICB 27159 (E. faecalis ICB 27159; ICB 27159),MIC S. pneumoniae G9a ([1]; G9a),MIC S. aureus 133 [2]; 133
,"CC[C@H](C)[C@@H]1NC(=O)[C@@H](CCCNC(=N)N)NC(=O)[C@H](CC(C)C)NC(=O)[C@H]([C@H](O)C(C)C)NC(=O)[C@@H](NC(=O)[C@H](CC(C)(C)C)NC(=O)[C@H](N)CC(C)(C)C)[C@@H](c2ccccc2)NC(=O)[C@H](CO)NC(=O)[C@H]([C@H](O)C(N)=O)NC(=O)CNC(=O)[C@H]([C@H](C)O)NC1=O [Example 1, [3-tert-Butyl-D-alanyl]-[3-tert-butyl-L-alanyl]-[(3R)-3-amino-L-phenylalanyl)]-[(3R)-3-hydroxy-L-leucyl]-L-leucyl-D-arginyl-L-isoleucyl-L-allothreonyl-glycyl-[(3S)-3-hydroxy-L-asparaginyl]-L-serine C^1.11—N^3.3-lactam bistrifluoroacetate] (H-[d(tBuAla)][tBuAla][Phe(βR-NH)][Leu(3R-OH)]L[dR]I[aThr]G[Asn(3S-OH)]S; lactam 3-C)",0.25 µg/mL,0.063 µg/mL,0.5 µg/mL,0.25 µg/mL,,,
0.5 µg/mL,"CC[C@H](C)[C@@H]1NC(=O)[C@@H](CCCNC(=N)N)NC(=O)[C@H](CC(C)C)NC(=O)[C@H]([C@H](O)C(C)C)NC(=O)[C@@H](NC(=O)[C@H](CC(C)C)NC(=O)[C@H](N)CC(C)C)[C@@H](c2ccccc2)OC(=O)[C@H](CO)NC(=O)[C@H]([C@H](O)C(N)=O)NC(=O)CNC(=O)[C@H]([C@H](C)O)NC1=O [Example 1A, reference compound] (H-[dL]L[Phe(3R-OH)][Leu(3R-OH)]L[dR]I[aThr]G[Asn(3S-OH)]S; ester 3-C)",,,,,0.5 µg/mL,0.063 µg/mL,0.5 µg/mL
,CC[C@H](C)[C@@H]1NC(=O)[C@@H](CCCNC(=N)N)NC(=O)[C@H](CC(C)C)NC(=O)[C@H]([C@H](O)C(C)C)NC(=O)[C@@H](NC(=O)[C@H](Cc2cccnc2)NC(=O)[C@H](N)C[Si](C)(C)C)[C@@H](c2ccccc2)NC(=O)[C@H](CO)NC(=O)[C@H]([C@H](O)C(N)=O)NC(=O)CNC(=O)[C@H]([C@H](C)O)NC1=O.O=C(O)C(F)(F)F.O=C(O)C(F)(F)F.O=C(O)C(F)(F)F [Example 3] (H-[dAla(TMS)][3Pal][Phe(βR-NH)][Leu(3R-OH)]L[dR]I[aThr]G[Asn(3S-OH)]S; lactam 3-C),2 µg/mL,0.25 µg/mL,0.125 µg/mL,,,,
,CC[C@H](C)[C@@H]1NC(=O)[C@@H](CCCNC(=N)N)NC(=O)[C@H](CC(C)C)NC(=O)[C@H]([C@H](O)C(C)C)NC(=O)[C@@H](NC(=O)[C@H](Cc2cccc(C)n2)NC(=O)[C@H](N)CC(C)(C)C)[C@@H](c2ccccc2)NC(=O)[C@H](CO)NC(=O)[C@H]([C@H](O)C(N)=O)NC(=O)CNC(=O)[C@H]([C@H](C)O)NC1=O.O=C(O)C(F)(F)F.O=C(O)C(F)(F)F.O=C(O)C(F)(F)F [Example 6] (H-[d(tBuAla)][X1][Phe(βR-NH)][Leu(3R-OH)]L[dR]I[aThr]G[Asn(3S-OH)]S; lactam 3-C),,,,,0.5 µg/mL,0.25 µg/mL,0.25 µg/mL
,CC[C@H](C)[C@@H]1NC(=O)[C@@H](CCCNC(=N)N)NC(=O)[C@H](CC(C)C)NC(=O)[C@H]([C@H](O)C(C)C)NC(=O)[C@@H](NC(=O)[C@H](Cc2ccc(C(F)(F)F)nc2)NC(=O)[C@H](N)CC(C)(C)C)[C@@H](c2ccccc2)NC(=O)[C@H](CO)NC(=O)[C@H]([C@H](O)C(N)=O)NC(=O)CNC(=O)[C@H]([C@H](C)O)NC1=O.O=C(O)C(F)(F)F.O=C(O)C(F)(F)F [Example 7] (H-[d(tBuAla)][X2][Phe(βR-NH)][Leu(3R-OH)]L[dR]I[aThr]G[Asn(3S-OH)]S; lactam 3-C),,,,,0.25 µg/mL,0.125 µg/mL,0.125 µg/mL
,CC[C@H](C)[C@@H]1NC(=O)[C@@H](CCCNC(=N)N)NC(=O)[C@H](CC(C)C)NC(=O)[C@H]([C@H](O)C(C)C)NC(=O)[C@@H](NC(=O)[C@H](CC(C)(C)C)NC(=O)[C@H](N)CC(C)C)[C@@H](c2ccccc2)NC(=O)[C@H](CO)NC(=O)[C@H]([C@H](O)C(N)=O)NC(=O)CNC(=O)[C@H]([C@H](C)O)NC1=O.O=C(O)C(F)(F)F.O=C(O)C(F)(F)F [Example 9] (H-[dL][tBuAla][Phe(βR-NH)][Leu(3R-OH)]L[dR]I[aThr]G[Asn(3S-OH)]S; lactam 3-C),,,,,0.5 µg/mL,0.125 µg/mL,0.25 µg/mL

# — patent publication US7718611B2, “Cyclic nonapeptide amides” (priority 2004, dated 2010)
